Converted amounts (≈) assume the structure as drawn. Blank lines part the entries; values can stand above or below the compound they belong to.
How the values were obtained:
Test in all cases: ≥ marks a high value that may be exact or a test limit, other limits are often not marked, values filed in µg/mL are converted to µM
[1] = tested on: Cryptococcus neoformans ATCC 32264
[2] = tested on: Candida albicans ATCC 10231
[3] = tested on: Candida krusei DSM 6128
[4] = tested on: Staphylococcus epidermidis ATCC 12228
[5] = tested on: Bacillus cereus PCM 2003
[6] = tested on: Candida glabrata DSM 11226
[7] = tested on: Staphylococcus aureus ATCC 25923
[8] = tested on: Candida tropicalis
[9] = tested on: Pseudomonas aeruginosa ATCC 27857
[10] = tested on: Escherichia coli ATCC 25922
[11] = tested on: Escherichia coli
[12] = tested on: Bifidobacterium longum subsp. infantis
[13] = tested on: Staphylococcus aureus
[14] = tested on: Bacillus subtilis DELTA
[15] = tested on: Escherichia coli DH5alpha
[16] = tested on: Zymomonas mobilis ATCC 10988
[17] = tested on: Bacillus subtilis NBRC 3009
[18] = tested on: Staphylococcus aureus NBRC 13276
[19] = tested on: Acinetobacter baumannii ATCC 19606
[20] = tested on: Escherichia coli NBRC 3972
[21] = tested on: Acinetobacter baumannii
[22] = tested on: Staphylococcus aureus ATCC 29213
[23] = tested on: Staphylococcus aureus 75
[24] = tested on: Acinetobacter baumannii 9931
[25] = tested on: Pseudomonas aeruginosa 50
[26] = tested on: Bacillus subtilis ATCC 23857
[27] = tested on: Klebsiella pneumoniae ATCC 700603
[28] = tested on: Acinetobacter baumannii 97830
[29] = tested on: Pseudomonas aeruginosa 73
[30] = tested on: Pseudomonas aeruginosa ATCC 9027
[31] = tested on: Escherichia coli 780
[32] = tested on: Staphylococcus aureus 113
[33] = tested on: Escherichia coli 804
[34] = tested on: Pseudomonas aeruginosa ATCC 27853
[35] = tested on: Staphylococcus aureus ATCC 29231
[36] = tested on: Klebsiella pneumoniae WGLW2
[37] = tested on: Acinetobacter baumannii ATCC 7978
[38] = tested on: Klebsiella aerogenes ATCC 13048
[39] = tested on: Staphylococcus aureus MW2
[40] = tested on: Bacillus subtilis ATCC 6051
[41] = tested on: Escherichia coli NEB5alpha

SMILES: C[C@H](N)C(=O)N[C@@H](CCC(N)=O)C(=O)N[C@@H](Cc1c[nH]c2ccccc12)C(=O)N[C@@H](CCCN=C(N)N)C(=O)N[C@@H](CCCN=C(N)N)C(=O)N[C@@H](Cc1c[nH]c2ccccc12)C(=O)N[C@@H](Cc1c[nH]c2ccccc12)C(=O)N[C@@H](CCC(N)=O)C(=O)N[C@@H](Cc1c[nH]c2ccccc12)C(=O)N[C@@H](CCCN=C(N)N)C(=O)N[C@@H](CCCN=C(N)N)C(N)=O [AQWRRWWQWRR]
MIC [1]: 25 µM (≈ 42.8 µg/mL) | MIC [2]: 50 µM (≈ 85.7 µg/mL)

SMILES: CSCC[C@H](NC(=O)[C@@H](N)CC(=O)O)C(=O)N[C@@H](CC(C)C)C(=O)N[C@H](C(=O)N[C@H](C(=O)N[C@@H](CC(=O)O)C(=O)N1CCC[C@H]1C(=O)N[C@@H](CCCCN)C(=O)O)C(C)C)C(C)C [DMLVVDPK]
MIC [11]: 3270 µM (≈ 3000 µg/mL) | MIC [12]: ≥ 3270 µM | MIC [13]: 3270 µM (≈ 3000 µg/mL)

SMILES: NC(=O)[C@H](Cc1ccccc1)NC(=O)[C@H](Cc1c[nH]c2ccccc12)NC(=O)[C@H](CCCN=C(N)N)NC(=O)[C@H](Cc1c[nH]c2ccccc12)NC(=O)[C@H](Cc1c[nH]c2ccccc12)NC(=O)[C@H](Cc1c[nH]c2ccccc12)NC(=O)[C@H](CCCN=C(N)N)NC(=O)[C@H](Cc1c[nH]c2ccccc12)NC(=O)[C@@H](N)Cc1ccccc1 [FWRWWWRWF]
MIC [22]: 4 µM (≈ 6.22 µg/mL) | MIC [23]: 8 µM (≈ 12.4 µg/mL) | MIC [4]: 4 µM (≈ 6.22 µg/mL) | MIC [24]: ≥ 32 µM | MIC [25]: ≥ 128 µM | MIC [26]: 2 µM (≈ 3.11 µg/mL) | MIC [27]: 16 µM (≈ 24.9 µg/mL) | MIC [28]: ≥ 32 µM | MIC [29]: ≥ 128 µM | MIC [30]: 128 µM (≈ 199 µg/mL) | MIC [19]: 64 µM (≈ 99.5 µg/mL) | MIC [31]: ≥ 32 µM | MIC [32]: 8 µM (≈ 12.4 µg/mL) | MIC [33]: ≥ 64 µM | MIC [34]: > 128 µM

SMILES: CC(C)C[C@H](NC(=O)[C@H](C)NC(=O)[C@H](CC(=O)O)NC(=O)[C@H](CCC(=O)O)NC(=O)[C@H](CC(C)C)NC(=O)[C@H](Cc1ccccc1)NC(=O)[C@H](CC(=O)O)NC(=O)[C@@H](N)CCCN=C(N)N)C(=O)N[C@@H](CC(N)=O)C(=O)O [RDFLEDALN]
MIC [40]: ≥ 500 µM | MIC [41]: ≥ 1000 µM

Results, then the compound that gave them:

MIC [3]: ≥ 155 µM | MIC [4]: 2.49 µM (≈ 4 µg/mL) | MIC [2]: > 155 µM | MIC [5]: ≥ 155 µM | MIC [6]: ≥ 155 µM | MIC [7]: 39.2 µM (≈ 63 µg/mL) | MIC [8]: ≥ 155 µM | MIC [9]: ≥ 77.7 µM | MIC [10]: 9.94 µM (≈ 16 µg/mL)
SMILES: CSCC[C@H](NC(=O)[C@H](C)NC(=O)[C@H](CCCN=C(N)N)NC(=O)[C@H](CCCCN)NC(=O)[C@H](Cc1c[nH]c2ccccc12)NC(=O)[C@H](CCC(N)=O)NC(=O)[C@H](Cc1ccccc1)NC(=O)[C@@H](N)CS)C(=O)N[C@@H](CCCN=C(N)N)C(=O)N[C@@H](CCCCN)C(=O)N[C@H](C(=O)N[C@@H](CCCN=C(N)N)C(N)=O)C(C)C [CFQWKRAMRKVR]

MIC [14]: 22.9 µM (≈ 40.9 µg/mL) | MIC [15]: ≥ 57.2 µM | MIC [16]: ≥ 114 µM
SMILES: CC[C@H](C)[C@H](NC(=O)[C@H](CCCN=C(N)N)NC(=O)[C@H](CCC(N)=O)NC(=O)[C@@H](NC(=O)[C@@H](NC(=O)[C@H](CCCN=C(N)N)NC(=O)[C@H](CCCCN)NC(=O)[C@H](Cc1ccccc1)NC(C)=O)[C@@H](C)CC)C(C)C)C(=O)N[C@@H](CCCN=C(N)N)C(=O)N[C@@H](CC(=O)O)C(=O)N[C@@H](Cc1ccccc1)C(=O)N[C@@H](CC(C)C)C(=O)N[C@@H](CCCN=C(N)N)C(N)=O [FKRIVQRIRDFLR]

MIC [17]: 0.707 µM (≈ 1.98 µg/mL) | MIC [18]: 3.54 µM (≈ 9.92 µg/mL) | MIC [19]: 0.9 µM (≈ 2.52 µg/mL) | MIC [20]: 10 µM (≈ 28 µg/mL) | MIC [21]: 1.8 µM (≈ 5.05 µg/mL)
SMILES: CC[C@H](C)[C@H](NC(=O)[C@H](CO)NC(=O)[C@H](Cc1ccccc1)NC(=O)[C@H](CC(C)C)NC(=O)[C@H](CO)NC(=O)CNC(=O)[C@H](CC(C)C)NC(=O)[C@@H](N)Cc1ccccc1)C(=O)NCC(=O)N[C@@H](CO)C(=O)N[C@@H](CCCCN)C(=O)N[C@@H](CC(C)C)C(=O)N[C@@H](CC(C)C)C(=O)N1CCC[C@H]1C(=O)NCC(=O)N[C@H](C(=O)N[C@H](C(=O)N[C@@H](CCCCN)C(=O)N[C@@H](CC(C)C)C(=O)N[C@@H](Cc1ccccc1)C(=O)N[C@@H](CCC(N)=O)C(=O)N[C@@H](CCCN=C(N)N)C(=O)N[C@@H](CCCCN)C(=O)N[C@@H](CCCCN)C(=O)N[C@@H](CCC(N)=O)C(N)=O)[C@@H](C)CC)C(C)C [FLGSLFSIGSKLLPGVIKLFQRKKQ]

MIC [35]: 30.1 µM (≈ 64 µg/mL) | MIC [36]: 30.1 µM (≈ 64 µg/mL) | MIC [37]: 7.25 µM (≈ 15.4 µg/mL) | MIC [38]: ≥ 60.2 µM | MIC [39]: 30.1 µM (≈ 64 µg/mL)
SMILES: CC[C@H](C)[C@H](NC(=O)[C@H](CCCCN)NC(=O)[C@H](Cc1c[nH]c2ccccc12)NC(=O)[C@@H](N)CC(C)C)C(=O)NCC(=O)N[C@@H](CCCCN)C(=O)N[C@@H](CCCCN)C(=O)N[C@H](C(=O)N[C@@H](Cc1c[nH]c2ccccc12)C(=O)N[C@@H](CCCN=C(N)N)C(=O)N[C@H](C(=O)NCC(=O)N[C@@H](Cc1c[nH]c2ccccc12)C(=O)N[C@@H](CC(N)=O)C(=O)N[C@@H](Cc1c[nH]c2ccccc12)C(=O)N[C@@H](CCCN=C(N)N)C(=O)O)C(C)C)[C@@H](C)CC [LWKIGKKIWRVGWNWR]
